# Where a SMILES comes first, the peptide text is derived from it. [ ]: non-standard residue; d: D form. βAla = NCCC(=O)O
# What was measured:
# Format in all cases: in vitro ADME, human
# [1] = Soluble peptide degradation, Cells condition (LC-MS); details: human
# Description: (§1) Most in vitro protease activity assays incubate the peptides or proteins of interest with a single protease in a buffered solution. However, the kinetics of protease activity in tissues are complex and highly regulated, and both the activity^[ [37] ^] and substrate specificity^[ [38] ^] of proteases can be modulated through association with other proteins.^[ [39] ^] Most MMP‐substrate peptides are also cleaved by multiple proteases,^[ [5] ^] and within the context of biomaterials, the most important factor is typically how the combined activity of all proteases, rather than the activity of any specific protease, modifies the local microenvironment versus the activity due to any individual enzyme. We synthesized peptides identified in the TAILS proteomic screen that were present on proteins that are known to be secreted or found on the cell membrane, pooled them, and added them either to cell culture media on top of cells, the “Cells” condition, or conditioned media lacking cells, the “Media” condition (Figure 2A). The fraction of peptides remaining after 24 h in each condition was then quantified using LC‐MS. Soluble proteases should be present in both conditions, however, membrane‐type proteases should primarily be found in the samples containing cells and not the conditioned media samples. A key benefit of this approach is that it surveys the total functional proteolytic activity, including the effects of inhibitors and co‐factors, and quantifies the degradation rate of soluble peptides by the complete secretome of different cell types.
# (§2) hUVECs (75000 per well) or hMSCs (36000 per well) were seeded into a 48 well plate, and 500 µL media was added to the wells. […] The peptide libraries were dissolved at a stock solution of 10 mM total peptide content. For libraries containing 38 peptides, 95 µL of the stock solution was added to each well; for libraries with 19 peptides, 47.5 µL was added to each well, and media was taken at 0 and 24 h. Add 4 µL of acetic acid to all collected media in the LC‐MS plates and store them in a −80 °C freezer to prevent further proteolytic degradation. From each sample, 10 µL of crude solution was introduced by the LC‐MS through a Thermo Scientific Vanquish LC System (Thermo Fisher Scientific), which outputted to a Thermo Scientific LTQ XL Linear Ion Trap Mass Spectrometer (Thermo Fisher Scientific). The sampled mixture was trapped on a column (ProntoSIL C18 AQ, 120 Å, 3 µm, 2.0 x 50 mm HPLC Column, PN 0502F184PS030, MAC‐MOD Analytical Inc.). The samples were loaded onto the column with a solvent containing acetonitrile/water, 5:95 (v/v) containing 1% acetic acid at a flow rate of 300 µL min^−1 and held for 1 min. The sample was then eluted from the column with a linear gradient of 5–40% Solvent B (1% acetic acid in acetonitrile) at the same flow rate for 5 min. This was followed by a 1 min ramp up to 100% Solvent B, where it was re‐equilibrated with Solvent A (1% acetic acid) to 5% solvent B over the course of 1 min and held there for 2 min. The column temperature was kept at a constant 29 °C, and the mass spectrometer was operated in positive ion mode. Using a Heated ESI, the Source Voltage was set to 4.1 kV, and the capillary temperature was 350 °C. For non‐library degradation studies, 2.5 µL of 10 mM peptide stock solution for each peptide was added.
# (§3) In the MMP‐14 inhibitor study, the MMP‐14 inhibitor NSC 405 020 (Cayman Chemical Company) was dissolved in DMSO to make a 10 mM stock solution and stored in −20 °C freezer. 0.5 µL MMP‐14 inhibitor stock solution was added to each well to achieve a 10 µM final concentration.
# (§4) For all degradation studies using soluble peptides, a non‐proteolytically degradable NH2‐βFβAβAβAβAβAβA‐amide (βFβA6) peptide, where βF is β‐phenylalanine and βA is β‐alanine, was added at a 50 µM concentration and used as an internal standard. Peptide degradation ratios were measured by LC‐MS and analyzed by Xcalibur. […]
# MMP-14 = assay: as above; details: human, cells or culture medium
# Description: as §1, §2, §3, §4
# [2] = Soluble peptide degradation, Media condition (cell-conditioned media, LC-MS); details: human; for remaining at 24 h: LC-MS
# Description: as §1, §2
# (§5) To assess the activity of the conditioned media, the media were divided into two equal portions. One portion was used for a standard degradation study, while the other was cultured for an additional 24 h before the PanMMP and KLVADLMASAE were added. After 24 h of incubation, the media were collected for further analysis. To assess the impact of recombinant MMP‐14 on PanMMP and KLVADLMASAE, recombinant MMP‐14 (antibodies.com) was dissolved in the media at a concentration of 0.5 nM. The remaining steps followed the standard degradation study protocol. […]
# hUVECs = assay: Soluble peptide degradation, Cells condition (LC-MS); details: Figure 3B heatmap; split-and-pool libraries KLVADX1X2ASAE in media on hUVECs; 24 h; LC-MS, ratio to βFβA6; N = 2
# Description: as §1, §2, §3, §4
# [3] = Soluble peptide degradation, Media condition (cell-conditioned media, LC-MS); details: human, 24 h, LC-MS
# Description: as §1, §2, §5
# [4] = hMSCs in culture with fresh media (Cells condition), Figure 3B heatmap, split-and-pool libraries KLVADX1X2ASAE (19 or 38 peptides per library) in media on hMSCs, 24 h, LC-MS, ratio to βFβA6, N = 2, read-out: Fraction of peptide remaining after 24 hours: hMSC Cells
# [5] = hUVEC-conditioned media without cells (Media condition), Figure 3B heatmap, split-and-pool libraries KLVADX1X2ASAE in hUVEC-conditioned media without cells, ratio to βFβA6, N = 2, read-out: Fraction of peptide remaining after 24 hours: hUVEC Media
# [6] = hMSC-conditioned media without cells (Media condition), Figure 3B heatmap, split-and-pool libraries KLVADX1X2ASAE in hMSC-conditioned media without cells, ratio to βFβA6, N = 2, read-out: Fraction of peptide remaining after 24 hours: hMSC Media
# [7] = hUVECs in culture with fresh media (Cells condition), Figure 3B heatmap, split-and-pool libraries KLVADX1X2ASAE in media on hUVECs, 24 h, LC-MS, ratio to βFβA6, N = 2, read-out: Fraction of peptide remaining after 24 hours: hUVEC Cells
# [8] = hMSCs in culture with fresh media (Cells condition), Figure 2B heatmap, pooled TAILS-derived soluble peptides (Ac-βAla N-terminus, βAla-amide C-terminus) in media on hMSCs (36000 per well, 48 well plate, 500 µL), 24 h, LC-MS, ratio to βFβA6 internal standard, 24 h / 0 h, N = 5, read-out: Fraction of peptide remaining at 24 hours: hMSC Cells
# [9] = hUVECs in culture with fresh media (Cells condition), Figure 2B heatmap, pooled TAILS-derived soluble peptides in media on hUVECs (75000 per well, 48 well plate, 500 µL), 24 h, LC-MS, ratio to βFβA6 internal standard, 24 h / 0 h, N = 5, read-out: Fraction of peptide remaining at 24 hours: hUVEC Cells
# [10] = Figure 2B heatmap, pooled TAILS-derived soluble peptides in 24 h hUVEC-conditioned media without cells, ratio to βFβA6 internal standard, 24 h / 0 h, N = 5, read-out: Fraction of peptide remaining at 24 hours: hUVEC Media
# [11] = Figure 2B heatmap, pooled TAILS-derived soluble peptides in 24 h hMSC-conditioned media without cells, ratio to βFβA6 internal standard, 24 h / 0 h, N = 5, read-out: Fraction of peptide remaining at 24 hours: hMSC Media
"remaining at 24 h [1, 4] [%]","remaining at 24 h [3, 5] [%]","remaining at 24 h [2, 6] [%]","remaining at 24 h [1, 7] [%]",SMILES,also measured
48,94,71,84,CC(=O)NCCC(=O)N[C@@H](CCCCN)C(=O)N[C@@H](CC(C)C)C(=O)N[C@H](C(=O)N[C@@H](C)C(=O)N[C@@H](CC(=O)O)C(=O)N[C@@H](CO)C(=O)N[C@@H](CC(=O)O)C(=O)N[C@@H](C)C(=O)N[C@@H](CO)C(=O)N[C@@H](C)C(=O)N[C@@H](CCC(=O)O)C(=O)NCCC(N)=O)C(C)C [Ser-Asp] (Ac-[βAla]KLVADSDASAE[βAla]-NH2),
46,100,74,90,CSCC[C@H](NC(=O)[C@H](CC(=O)O)NC(=O)[C@H](C)NC(=O)[C@@H](NC(=O)[C@H](CC(C)C)NC(=O)[C@H](CCCCN)NC(=O)CCNC(C)=O)C(C)C)C(=O)N[C@@H](Cc1c[nH]cn1)C(=O)N[C@@H](C)C(=O)N[C@@H](CO)C(=O)N[C@@H](C)C(=O)N[C@@H](CCC(=O)O)C(=O)NCCC(N)=O [Met-His] (Ac-[βAla]KLVADMHASAE[βAla]-NH2),
48,100,74,88,CC(=O)NCCC(=O)N[C@@H](CCCCN)C(=O)N[C@@H](CC(C)C)C(=O)N[C@H](C(=O)N[C@@H](C)C(=O)N[C@@H](CC(=O)O)C(=O)NCC(=O)N[C@@H](Cc1ccc(O)cc1)C(=O)N[C@@H](C)C(=O)N[C@@H](CO)C(=O)N[C@@H](C)C(=O)N[C@@H](CCC(=O)O)C(=O)NCCC(N)=O)C(C)C [Gly-Tyr] (Ac-[βAla]KLVADGYASAE[βAla]-NH2),

# More lines, now with the values behind:
SMILES,"remaining at 24 h [1, 4] [%]","remaining at 24 h [3, 5] [%]","remaining at 24 h [2, 6] [%]","remaining at 24 h [1, 7] [%]",also measured
CC(=O)NCCC(=O)N[C@@H](CCCCN)C(=O)N[C@@H](CC(C)C)C(=O)N[C@H](C(=O)N[C@@H](C)C(=O)N[C@@H](CC(=O)O)C(=O)N1CCC[C@H]1C(=O)N[C@@H](CC(C)C)C(=O)N[C@@H](C)C(=O)N[C@@H](CO)C(=O)N[C@@H](C)C(=O)N[C@@H](CCC(=O)O)C(=O)NCCC(N)=O)C(C)C [KLVAD-PL] (Ac-[βAla]KLVADPLASAE[βAla]-NH2),,,,,"remaining at 24 h ([1]; cells or culture medium): 83%; remaining at 24 h ([1]; cells or culture medium, Fraction of peptide remaining after 24 hours: hMSC Cells): 51%; remaining at 24 h, 50 µM (MMP-14): 99%; remaining at 24 h, 50 µM (MMP-14; Fraction of peptide remaining after 24 hours: hMSC +Inhibitor): 94%; remaining at 24 h, 50 µM ([2]; cells or culture medium): 91%"
CC(=O)NCCC(=O)N[C@@H](CCCCN)C(=O)N[C@@H](CC(C)C)C(=O)N[C@H](C(=O)N[C@@H](C)C(=O)N[C@@H](CC(=O)O)C(=O)N[C@@H](CCC(=O)O)C(=O)N1CCC[C@H]1C(=O)N[C@@H](C)C(=O)N[C@@H](CO)C(=O)N[C@@H](C)C(=O)N[C@@H](CCC(=O)O)C(=O)NCCC(N)=O)C(C)C [Glu-Pro] (Ac-[βAla]KLVADEPASAE[βAla]-NH2),49,96,79,,Fraction of peptide remaining after 24 hours: hUVEC Cells (hUVECs): 0.89
CC(=O)NCCC(=O)N[C@@H](CCCCN)C(=O)N[C@@H](CC(C)C)C(=O)N[C@H](C(=O)N[C@@H](C)C(=O)N[C@@H](CC(=O)O)C(=O)N[C@@H](Cc1ccc(O)cc1)C(=O)N1CCC[C@H]1C(=O)N[C@@H](C)C(=O)N[C@@H](CO)C(=O)N[C@@H](C)C(=O)N[C@@H](CCC(=O)O)C(=O)NCCC(N)=O)C(C)C [Tyr-Pro] (Ac-[βAla]KLVADYPASAE[βAla]-NH2),35,96,65,89,
CC[C@H](C)[C@H](NC(=O)[C@H](CCCCN)NC(=O)[C@@H](NC(=O)[C@H](CO)NC(=O)[C@H](CO)NC(=O)[C@@H]1CCCN1C(=O)CCNC(C)=O)[C@@H](C)CC)C(=O)N[C@@H](CCCCN)C(=O)N[C@@H](CO)C(=O)N[C@@H](C)C(=O)N[C@@H](CC(=O)O)C(=O)N[C@@H](CCCCN)C(=O)NCCC(N)=O [PSSIKIKSADK] (Ac-[βAla]PSSIKIKSADK[βAla]-NH2),,,,,"remaining at 24 h [1, 8]: 81%; remaining at 24 h [1, 9]: 86%; remaining at 24 h [3, 10]: 93%; remaining at 24 h [2, 11]: 90%"
CC[C@H](C)[C@H](NC(=O)[C@@H](NC(=O)[C@H](CCSC)NC(=O)[C@@H]1CCCN1C(=O)[C@H](CCCCN)NC(=O)[C@H](CCCCN)NC(=O)CCNC(C)=O)[C@@H](C)O)C(=O)N[C@@H](C)C(=O)N[C@@H](CCCNC(=N)N)C(=O)N[C@@H](CC(C)C)C(=O)N[C@@H](CC(N)=O)C(=O)N[C@@H](C)C(=O)N[C@@H](CCCCN)C(=O)N[C@@H](CCCCN)C(=O)NCCC(N)=O [KKPMTIARLNAKK] (Ac-[βAla]KKPMTIARLNAKK[βAla]-NH2),,,,,"remaining at 24 h [1, 8]: 75%; remaining at 24 h [1, 9]: 73%; remaining at 24 h [3, 10]: 74%; remaining at 24 h [2, 11]: 94%"
CC(=O)NCCC(=O)N[C@@H](CCCCN)C(=O)N[C@@H](CC(C)C)C(=O)N[C@H](C(=O)N[C@@H](C)C(=O)N[C@@H](CC(=O)O)C(=O)N1CCC[C@H]1C(=O)N[C@@H](Cc1ccccc1)C(=O)N[C@@H](C)C(=O)N[C@@H](CO)C(=O)N[C@@H](C)C(=O)N[C@@H](CCC(=O)O)C(=O)NCCC(N)=O)C(C)C [Pro-Phe] (Ac-[βAla]KLVADPFASAE[βAla]-NH2),41,97,73,84,
